Results published in patent publication US4100278A, “Novel benzazepines” (Roussel Uclaf, priority 1976, dated 1978).
Counter-ions that a name gives are not always drawn.

How the values were obtained:
[1] = test system: L-dopa effects; test: Potentialization of L-dopa effects in mice pretreated with iproniazide; assay type: in vivo; conditions: Mus musculus, ip; male mice, test product i.p. one hour before L-dopa 100 mg/kg i.p.; iproniazide 75 mg/kg i.p. 18 hours before; read-out: ED50 (dose at which 50% of the L-dopa effects were potentialized)
Experimental: The administration of L-dopa to mice pretreated with iproniazide 18 hours earlier produces a certain number of symptoms: muscular hypertonicity, hyperactivity, agitation, crying, aggressiveness, salivation and exophthalmia. The intensity of these effects is potentialized by administration of an antidepressive agent one hour before the L-dopa administration.
Male mice received intraperitoneally 75 mg/kg of iproniazide 18 hours before the start of the test and the test products in aqueous solution were administered intraperitoneally in increasing doses. The L-dopa was intraperitoneally administered at a dose of 100 mg/kg one hour later and the symptoms observed 15 and 30 minutes after the L-dopa administration were evaluated on a scale of 0 to 3 for each mouse and the values were totaled for each dose.

[2] = test system: effects of 5-hydroxytryptophane (5 HTP); test: Potentialization of effects of 5 HTP in mice (trembling); assay type: in vivo; conditions: Mus musculus, test product i.p. one hour before 200 mg/kg 5 HTP i.p., observed every 15 minutes for an hour, read-out: MAD (minimum active dose)
Source text: The administration of 5-hydroxytryptophane (5 HTP) to mice pretreated with an antidepressive agent induces in the animals a particular behavoir, namely the appearance of trembling.

[3] = Acute toxicity (LD50) in mice; conditions: mouse, in vivo, ip, intraperitoneal, mortality at 48 hours
Experimental: The LD50, dose which killed 50% of mice was determined by intraperitoneal administration of the test compounds and the mortality rate was determined of 48 hours.

[4] = test system: effects of nialamide (inhibitor of monoamine oxidase) - hyperactive motility; test: Potentialization of effects of IMAO (nialamide), actimetric counting in mice; assay type: in vivo; set-up: key to the marks not given beside the values; conditions: 30 minutes after nialamide 100 mg/kg i.p., counts totaled every 30 minutes for 6 hours
[5] = test system: uptake of serotonine (C^14 - 5 HT), brain synaptosoma; test: Inhibition of uptake of serotonine in vivo (Test No. 2); conditions: Rattus norvegicus, ip; female rats 19 to 21 days old, 10 mg/kg i.p., brain removed after 30 minutes; read-out: % inhibition of uptake of C^14 - 5 HT with respect to the controls (Test No. 2)
Experimental: The test products were administered intraperitoneally to groups of female rats 19 to 21 days old at doses from 5 to 20 mg/kg. After 30 minutes, the brain was removed and the synaptosoma was prepared and was placed in an incubator in the presence of C^14 - 5 HT as indicated previously. […] The activity is expressed in % inhibition with respect to the controls at a dose of 10 mg/kg and the results are reported in Table V.

[6] = test system: uptake of serotonine (5 HT), purified synaptosoma from whole brain; test: Inhibition of uptake of serotonine in vitro (Test No. 1); assay type: biochemical, female rats; conditions: rat brain synaptosoma, 37° C, 5 minutes, C^14 - 5 HT 10^-7 M; read-out: 50% inhibiting concentration (IC 50) of uptake of C^14 - 5 HT (Test No. 1)
Experimental: The inhibition of uptake of serotonine (5 HT) was measured with purified synaptosoma prepared by starting from the whole brain of female rats 19-21 days old by the technique of Kannengiesser et al [Biochemical Pharmacology, Vol. 22 (1973), p. 73]. The test products at different concentrations were incubated with the preparation at 37° C for 5 minutes in the presence of C^14 - 5 HT at a concentration of 10^-7 M. The 50% inhibiting concentration (IC 50) of the products was graphically determined as the dose that inhibited by 50% the uptake of C^14 - 5 HT in the synaptosma.

SMILES | ED50 [1] | minimal effective dose [2] | LD50 at 48 h [3] | Potentialization of nialamide for the dose ([4]; 1 mg/kg i.p.) | inhibition at 10 mg/kg [5] | IC50 [6] | Potentialization of nialamide for the dose ([4]; 5 mg/kg i.p.) | Potentialization of nialamide for the dose ([4]; 20 mg/kg i.p.)
NCC1CCc2ccccc2NC1.O=C(O)/C=C/C(=O)O (centres unmarked) [Example 1, 2,3,4,5-tetrahydro-[1H]-1-benzazepine-3-methanamine fumarate] | 10 mg/kg | 50 mg/kg | 300 mg/kg | ++ | – | – | – | –
CNCC1CCc2ccccc2NC1.Cl.Cl (centres unmarked) [Example 2, N-methyl-2,3,4,5-tetrahydro-[1H]-1-benzazepine-3-methanamine dihydrochloride] | – | 10 mg/kg | 250 mg/kg | – | 58% | 1300 nM | +++ | –
CNCC1CCc2ccccc2N(C)C1 (centres unmarked) [Example 3, Di-[N, 1-dimethyl-2,3,4,5-tetrahydro-[1H]-1-benzazepine-3-methanamine]-fumarate] | 20 mg/kg | 50 mg/kg | 250 mg/kg | – | 40% | 1300 nM | ++ | –
NC1CCc2ccccc2NC1 (centres unmarked) [Example 4, di-[2,3,4,5-tetrahydro-[1H]-1-benzazepine-3-amine]-fumarate] | 50 mg/kg | 50 mg/kg | 300 mg/kg | – | – | – | – | ++
CNC1CCc2ccccc2N(C)C1 (centres unmarked) [Example 5, di-[N,1-dimethyl-2,3,4,5-tetrahydro-[1H]-1-benzazepine-3-amine]-fumarate] | – | 50 mg/kg | 150 mg/kg | – | – | – | – | –
CNC1CCc2ccccc2NC1 (centres unmarked) [Example 6, di-[N-methyl-2,3,4,5-tetrahydro-[1H]-1-benzazepine-3-amine] fumarate] | – | 20 mg/kg | 250 mg/kg | – | – | – | – | –
